For data set [1], the system named is HepG2. Put plainly: Cytotoxicity against human HepG2 cells after 48 hrs by CCK-8 assay. Format: functional, cell-based. Conditions: HepG2, 48 h. For orientation: Formazan colour is commonly taken as a measure of viable cells.
Data set [2] deals with A549. Put plainly: Cytotoxicity against human A549 cells after 48 hrs by CCK-8 assay. In kind it is functional, cell-based. As to conditions: A549, 48 h.
In data set [3] the test system is HCT-116. The data set is described as follows: Cytotoxicity against human HCT116 cells after 48 hrs by CCK-8 assay. In kind it is functional, cell-based. As to conditions: HCT-116, 48 h.
Data set [4] concerns L02. Put plainly: Induction of human LO2 cell growth at 0.02 to 10 uM after 48 hrs by CCK-8 assay. Format: functional, cell-based.
Data set [5] deals with MCF7. Put plainly: Cytotoxicity against human MCF7 cells after 48 hrs by CCK-8 assay. Format: functional, cell-based. As to conditions: MCF7, 48 h.
Data set [6] in a line: Aqueous equilibrium solubility of the compound after 24 hrs by HPLC analysis. Format: physicochemical. Conditions: water (aqueous).
A short description of data set [7]: Cytotoxicity against human LO2 cells at 0.02 to 10 uM after 48 hrs by CCK-8 assay. Format: cell-based. Conditions: l02, 48 h.
Data set [8] relates to PepT1. The data set is described as follows: Effective permeability in Sprague-Dawley rat single-pass intestinal perfusion model assessed as PepT1-mediated drug transport at 0.1 mM administered in MES buffer at pH 6 via PVC tubing after 20 to 120 mins by HPLC analysis. As to conditions: other: intestinal perfusion via PVC tubing, read-out: Peff. Format: ADME, organism-based.

In data set [9] the test system is PepT1. Put plainly: Effective permeability in Sprague-Dawley rat single-pass intestinal perfusion model assessed as PepT1-mediated drug transport at 0.1 mM administered in HEPES buffer at pH 7.4 via PVC tubing after 20 to 120 mins by HPLC analysis. As to conditions: other: intestinal perfusion via PVC tubing, read-out: Peff. Format: ADME, organism-based.
Data set [10] concerns A549. The data set is described as follows: Ratio of cisplatin IC50 to compound IC50 for human A549 cells. Format: functional.
Data set [11] is described as follows: Chemical stability in MES buffer assessed as compound remaining at 37 degC up to 2 hrs by HPLC analysis. Conditions: read-out: Stability. In kind it is physicochemical.
Data set [12] concerns PepT1. Put plainly: Effective permeability in Sprague-Dawley rat single-pass intestinal perfusion model assessed as PepT1-mediated drug transport at 0.1 mM administered in MES buffer at pH 6 via PVC tubing after 20 to 120 mins by HPLC analysis in presence of Gly-Sar. In kind it is ADME, organism-based. As to conditions: other: intestinal perfusion via PVC tubing, pH 6, with Gly-Sar (concentration not stated), read-out: Peff.

Data set [13] in a line: Induction of nitric oxide release in PBS at 100 uM at pH 7.4 after 24 hrs by Griess method in presence of rat serum. As to conditions: pH 7.4, 24 h. In general terms: The Griess reaction detects nitrite, a stable product of nitric oxide.
A short description of data set [14]: Induction of nitric oxide release in PBS at 100 uM at pH 7.4 after 24 hrs by Griess method. As to conditions: buffer, pH 7.4, 24 h.
Data set [15] can be described thus: Cytotoxicity against human LO2 cells assessed as cell survival at 50 uM after 48 hrs by CCK-8 assay relative to control. Format: cell-based, L02. As to conditions: read-out: Survival.
Data set [16] can be described thus: Chemical stability in HEPES buffer assessed as compound remaining at 37 degC up to 2 hrs by HPLC analysis. In kind it is physicochemical. As to conditions: read-out: Stability.

≈ marks a conversion by molar mass, not a printed value. Calls of active or inactive are those of the source. No cut-off for these calls is given here.

`CC1(C)CC[C@]2(C(=O)O)CC[C@]3(C)C(=CC[C@@H]4[C@@]5(C)CC[C@H](O)C(C)(C)[C@@H]5CC[C@]43C)[C@@H]2C1` [OLEANOLIC_ACID]: the IC50 in [1] is 51.4 µM; in data set [2], 81.4 µM; in data set [3], over 150 µM; in data set [5], over 150 µM. Moreover, the result in data set [4] was Active. This molecule also came in with a solubility (thermodynamic) at 24 h in data set [6] of 0.012 µg/mL (≈ 0.0263 µM). The Activity entry in [7] is “Non-toxic”. The Papp at 100 µM worked out at 31.6 ×10⁻⁶ cm/s in data set [8] and 31.7 ×10⁻⁶ cm/s in data set [9].
Regarding `CC(C)[C@H](NC(=O)[C@H](C)N)C(=O)OCCOC(=O)[C@]12CCC(C)(C)C[C@H]1C1=CC[C@@H]3[C@@]4(C)CC[C@H](OC(=O)CO[N+](=O)[O-])C(C)(C)[C@@H]4CC[C@@]3(C)[C@]1(C)CC2`, the 50% inhibitory concentration (IC50) was 22.1 µM in [1], 9.6 µM in data set [2], 24.7 µM in data set [3] and 83.2 µM in data set [5].
In the same order, the values of `CC(COC(=O)[C@]12CCC(C)(C)C[C@H]1C1=CC[C@@H]3[C@@]4(C)CC[C@H](O)C(C)(C)[C@@H]4CC[C@@]3(C)[C@]1(C)CC2)OC(=O)[C@@H](NC(=O)[C@@H](N)C(C)C)C(C)C` (stereo partly drawn) are 73.1 µM, 64.3 µM, 133 µM and over 150 µM.
The like results for `CC[C@H](C)[C@H](N)C(=O)OCCOC(=O)[C@]12CCC(C)(C)C[C@H]1C1=CC[C@@H]3[C@@]4(C)CC[C@H](OC(=O)CO[N+](=O)[O-])C(C)(C)[C@@H]4CC[C@@]3(C)[C@]1(C)CC2` were, in that order, 16.3 µM, 17.7 µM, over 150 µM and 74 µM.
With `CC(C)[C@H](N)C(=O)N[C@H](C(=O)OCCOC(=O)[C@]12CCC(C)(C)C[C@H]1C1=CC[C@@H]3[C@@]4(C)CC[C@H](OC(=O)CO[N+](=O)[O-])C(C)(C)[C@@H]4CC[C@@]3(C)[C@]1(C)CC2)C(C)C.Cl`, in data set [10], the “Ratio IC50” value was determined as 7. The remaining at 2 h in [11] turned out to be 100%; in [16] it was 98.2%. Also, the Papp at 100 µM in data set [12] was determined as 16.3 ×10⁻⁶ cm/s; in data set [8] it was 46 ×10⁻⁶ cm/s; in data set [9], 23.4 ×10⁻⁶ cm/s. The Activity entry in data set [13] is given as “Active”; in data set [14] it was 9.9%; in data set [7], “Non-toxic”. The IC50 in [1] was determined as 2.8 µM; in [2] it was 2.4 µM; in data set [3], 15.5 µM; in data set [5], 15 µM. Besides, the result in data set [4] was Active. The molecule also had a solubility (thermodynamic) at 24 h in data set [6] of 22.3 µg/mL. Moreover, in data set [15], the viability at 48 h, 50 µM worked out at 60%.
Take `CC(C)[C@H](N)C(=O)OCCOC(=O)[C@]12CCC(C)(C)C[C@H]1C1=CC[C@@H]3[C@@]4(C)CC[C@H](OC(=O)CO[N+](=O)[O-])C(C)(C)[C@@H]4CC[C@@]3(C)[C@]1(C)CC2.Cl`: the “Ratio IC50” value in data set [10] is 2. The remaining at 2 h was determined as 100% in [11] and 98.5% in data set [16]. Further, the Papp at 100 µM in [12] turned out to be 25.3 ×10⁻⁶ cm/s; in data set [8], 33.2 ×10⁻⁶ cm/s; in data set [9], 20.3 ×10⁻⁶ cm/s. Besides, the Activity entry is “Active” in [13], 6.7% in data set [14] and “Non-toxic” in data set [7]. Further, the IC50 in [1] was 10.7 µM; in data set [2], 7.5 µM; in [3] it was 24.9 µM; in data set [5] it was 25.5 µM. Further, the result in [4] was Active. Besides, the thermodynamic solubility at 24 h in [6] was found to be 18.6 µg/mL. Moreover, in data set [15], the viability at 48 h, 50 µM turned out to be 60%.
As for `CC(C)[C@H](N)C(=O)OCCOC(=O)[C@]12CCC(C)(C)C[C@H]1C1=CC[C@@H]3[C@@]4(C)CC[C@H](O)C(C)(C)[C@@H]4CC[C@@]3(C)[C@]1(C)CC2.Cl`, the IC50 was 96.7 µM in data set [1], 68.1 µM in data set [2], over 150 µM in [3] and over 150 µM in data set [5]. The thermodynamic solubility at 24 h in data set [6] was determined as 25.2 µg/mL. Besides, the Papp at 100 µM in data set [9] is 41.5 ×10⁻⁶ cm/s.
With `C[C@H](N)C(=O)OCCOC(=O)[C@]12CCC(C)(C)C[C@H]1C1=CC[C@@H]3[C@@]4(C)CC[C@H](OC(=O)CO[N+](=O)[O-])C(C)(C)[C@@H]4CC[C@@]3(C)[C@]1(C)CC2`, the IC50 in [1] turned out to be 23.2 µM; in [2], 28.1 µM; in data set [3], 32.8 µM; in data set [5], 48 µM.

Usually IC50 stands for the midpoint of a concentration-inhibition curve. Read a high IC50 as weaker potency. Broadly, the solubility (thermodynamic) is the concentration in solution at equilibrium with solid.

Source of the values: ChEMBL document CHEMBL3124912, “Combination of amino acid/dipeptide with nitric oxide donating oleanolic acid derivatives as PepT1 targeting antitumor prodrugs” (J Med Chem, 2014).
